Source: patent US7973050B2, “Enantiomeric compounds with antibacterial activity” (Crestone, Inc., priority 2006, dated 2011)
Values after ≈ are worked out from the molar mass of the structure shown. Where a name gives a salt, the structure may show the parent alone. Read-outs that look alike come from different tables or passages of the source.

Assays:
[1] = tested on: C. difficile clinical isolates (spore production); assay: C. difficile sporulation on agar with subMIC drug; assay type: cell-based, Clostridium difficile; settings: 96 hours
[2] = molecular target: Clostridium difficile MetRS (Clostridioides difficile, UniProt Q181D9, C642S); assay: C. difficile MetRS inhibition (tRNA charging SPA assay); assay type: biochemical
Chain of Clostridium difficile MetRS (Q181D9 2-645 C642S): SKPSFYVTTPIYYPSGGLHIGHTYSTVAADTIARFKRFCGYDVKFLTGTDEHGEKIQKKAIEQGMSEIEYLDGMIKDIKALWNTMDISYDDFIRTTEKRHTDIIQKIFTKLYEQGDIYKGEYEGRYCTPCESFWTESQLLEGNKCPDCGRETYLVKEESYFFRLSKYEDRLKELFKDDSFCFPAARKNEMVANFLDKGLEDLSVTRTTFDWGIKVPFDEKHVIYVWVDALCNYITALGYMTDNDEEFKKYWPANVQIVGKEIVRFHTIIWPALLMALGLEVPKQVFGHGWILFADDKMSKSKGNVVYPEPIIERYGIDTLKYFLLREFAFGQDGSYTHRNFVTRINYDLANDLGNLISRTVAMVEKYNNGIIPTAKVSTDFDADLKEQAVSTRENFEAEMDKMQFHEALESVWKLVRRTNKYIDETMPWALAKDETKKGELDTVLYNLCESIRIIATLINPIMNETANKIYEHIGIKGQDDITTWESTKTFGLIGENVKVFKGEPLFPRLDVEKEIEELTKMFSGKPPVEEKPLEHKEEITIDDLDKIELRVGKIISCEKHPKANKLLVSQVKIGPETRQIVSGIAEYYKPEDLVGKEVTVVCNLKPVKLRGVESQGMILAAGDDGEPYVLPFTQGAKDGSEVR
Method: Compounds of the present invention were assayed to determine their ability to inhibit MetRS. Assays were performed as follows:
Each reaction was started by adding 20 μl appropriately diluted pure enzyme (pre-incubated with inhibitor) to 25 μl reaction mix for 10 min at room temperature. The reaction is terminated by the addition of 150 μl 167 mM sodium citrate, pH 2.15 containing phosphodiesterase (PDE) SPA beads (0.833 mg/ml). The binding of the radiolabelled product to the bead brings the isotope into close enough proximity to allow radiation from the tritium to excite the scintillant within the bead. Any unbound radiolabel is not close enough to the scintillant to allow this energy transfer, so no signal is generated. Following termination of the reaction, plates are spun at 2500 rpm for 5 min in a Mistral 3000E plate centrifuge (or alternatively allowed to stand for 1 hour). The assay is conducted in 96-well Optiplates (Packard). Plates are counted on a TopCount. (Packard 96 well counter).
Mixed E. coli MRE 600 tRNA and ATP were purchased from Boehringer-Mannheim, L-[methyl-^3H]methionine and phosphodiesterase scintillation proximity (SPA) beads from Amersham Pharmacia Biotech and other reagents from Sigma.

rat MetRS = assay: Mammalian MetRS inhibition (selectivity); assay type: biochemical; settings: mammalian enzyme
C. difficile [3] = assay: MIC90 against C. difficile clinical isolates, agar dilution (CLSI); assay type: cell-based; settings: Clostridioides difficile, read-out: MIC90 against Clostridium difficile
C. difficile [4] = assay: C. difficile-infected hamster survival study; assay type: in vivo
Method: Animal studies were performed to determine the efficacy of MetRS inhibitors for treating C. difficile-infections. The MetRS inhibitors tested were 5-[3-((R)-6,8-Dibromo-chroman-4-ylamino)-propylamino]-4H-thieno[3,2-b]pyridine-7-one (both racemic mixture and the R enantiomer) and 5-[3-((R)-8-Bromo-6-chloro-chroman-4-ylamino)-propylamino]-4H-thieno[3,2-b]pyridin-7-one. Also tested was 2-(3-{3,5-Dibromo-2-[2-(4-methyl-thiazol-5-yl)-ethoxy]-benzylamino}-propylamino)-1H-quinolin-4-one.
Results were compared to C. difficile-infected hamsters treated with the conventional antibiotic, vancomycin. Infected hamsters were treated with either a solution or suspension of a MetRS inhibitor at 5 to 50 mg/kg or vancomycin at 2.5, 5 or 25 mg/kg. There were eight hamsters per group with the final endpoint of the experiment being survival. Expired hamsters were examined for GI condition.

[5] = agar dilution, clinical isolates, 24 hours at 35° C. anaerobic, range stated for the group
[6] = range stated for the group of listed examples, read-out: Ki, inhibition of Clostridium difficile MetRS

O=c1cc(NCCCN[C@@H]2CCOc3c(Br)cc(Br)cc32)[nH]c2ccsc12 (single isomer, unassigned) [Example 2, di-hydrochloride]
spores (ratio of spores to total cells) at 0.25×MIC ([1]; all strains, 0.25×MIC): < 2%
spores (ratio of spores to total cells) at 0.5×MIC ([1]; all strains, 0.5×MIC): < 1%
effect on spore production, in words ([1]; subMIC concentrations): effective in preventing vegetative cells of C. difficile from forming spores
Ki [2]: 0.015 to 0.025 nM
inhibition of mammalian (rat) MetRS (rat MetRS): no inhibition
MIC90 (C. difficile [3]; [5]): 0.25 to 4 µg/mL
efficacy (survival) in infected hamsters, in words (C. difficile [4]; MetRS inhibitor at 5 to 50 mg/kg, solution or suspension): best efficacy

O=c1cc(NCCCN[C@H]2CCOc3c(Br)cc(Br)cc32)[nH]c2ccsc12 (single isomer, unassigned) [Example 3, di-hydrochloride]
Ki [2]: 24 to 80 nM

O=c1cc(NCCCN[C@@H]2CCOc3c(Br)cc(Cl)cc32)[nH]c2ccsc12 (single isomer, unassigned) [Example 4, di-hydrochloride]
Ki [2]: 0.015 to 0.025 nM
inhibition of mammalian (rat) MetRS (rat MetRS): no inhibition
MIC90 (C. difficile [3]; 24 h): 0.25 to 4 µg/mL

O=c1cc(NCCCN[C@H]2CCOc3c(Br)cc(Cl)cc32)[nH]c2ccsc12 (single isomer, unassigned) [Example 5, di-hydrochloride]
Ki [2]: 24 to 80 nM

O=c1cc(NCCCN[C@@H]2CCOc3c(Br)cc(Br)cc32)[nH]c2ccccc12 (single isomer, unassigned) [Example 6, di-hydrochloride]
Ki [2]: 0.015 to 0.025 nM
inhibition of mammalian (rat) MetRS (rat MetRS): no inhibition
MIC90 (C. difficile [3]; 24 h): 0.25 to 4 µg/mL

O=c1cc(NCCCN[C@H]2CCOc3c(Br)cc(Br)cc32)[nH]c2ccccc12 (single isomer, unassigned) [Example 7, di-hydrochloride]
Ki [2]: 24 to 80 nM

O=c1cc(NCCCN[C@@H]2CCNc3c(Br)cc(Br)cc32)[nH]c2ccsc12 (single isomer, unassigned) [Example 8, tri-hydrochloride]
Ki [2]: 0.015 to 0.025 nM
inhibition of mammalian (rat) MetRS (rat MetRS): no inhibition
MIC90 (C. difficile [3]; 24 h): 0.25 to 4 µg/mL

O=c1cc(NCCCN[C@H]2CCNc3c(Br)cc(Br)cc32)[nH]c2ccsc12 (single isomer, unassigned) [Example 9, tri-hydrochloride]
Ki [2]: 24 to 80 nM

O=c1cc(NCCCN[C@@H]2CCCc3c(Br)cc(Br)cc32)[nH]c2ccsc12 [Example 10, 5-[3-((R)-5,7-Dibromo-1,2,3,4-tetrahydro-naphthalen-1-ylamino)-propylamino]-4H-thieno[3,2-b]pyridine-7-one]
Ki [2, 6]: 0.015 to 0.025 nM
inhibition of mammalian (rat) MetRS (rat MetRS): no inhibition
MIC90 (C. difficile [3]; [5]): 0.25 to 4 µg/mL (≈ 0.489 to 7.82 µM)

O=c1cc(NCCCN[C@@H]2COc3c(Br)cc(Br)cc32)[nH]c2ccsc12 [Example 11, 5-[3-((S)-5,7-Dibromo-2,3-dihydro-benzofuran-3-ylamino)-propylamino]-4H-thieno[3,2-b]pyridine-7-one]
Ki [2, 6]: 0.015 to 0.025 nM
inhibition of mammalian (rat) MetRS (rat MetRS): no inhibition
MIC90 (C. difficile [3]; [5]): 0.25 to 4 µg/mL (≈ 0.501 to 8.01 µM)

O=c1cc(NCCCN[C@H]2COc3c(Br)cc(Br)cc32)[nH]c2ccsc12 [Example 12, 5-[3-((R)-5,7-Dibromo-2,3-dihydro-benzofuran-3-ylamino)-propylamino]-4H-thieno[3,2-b]pyridine-7-one]
Ki [2, 6]: 24 to 80 nM

Cc1ncc([N+](=O)[O-])n1CCO [metronidazole, reference compound]
spores after exposure to subMIC concentrations ([1]; all tested strains, subMIC): up to 100%

CN[C@H](CC(C)C)C(=O)N[C@H]1C(=O)N[C@@H](CC(N)=O)C(=O)N[C@H]2C(=O)N[C@H]3C(=O)N[C@H](C(=O)N[C@H](C(=O)O)c4cc(O)cc(O)c4-c4cc3ccc4O)[C@H](O)c3ccc(c(Cl)c3)Oc3cc2cc(c3O[C@@H]2O[C@H](CO)[C@@H](O)[C@H](O)[C@H]2O[C@H]2C[C@](C)(N)[C@H](O)[C@H](C)O2)Oc2ccc(cc2Cl)[C@H]1O [vancomycin, reference compound]
survival on Day 28 (vancomycin comparator) (C. difficile [4]; C. difficile-infected hamsters, vancomycin at 2.5, 5 or 25 mg/kg): 0-10%
